Read-outs that look alike come from different tables or passages of the source.
How the values were obtained:
Puccinia triticina = assay: Fungicidal activity: Wheat Brown Rust (PUCCRT); format: in vivo; settings: for pest or weed control at 121.5 g/ha: Low Volume (121.5 g/H); for pest or weed control at 100 µg/mL: High Volume (100 ppm)
In short: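 Wheat seedlings (Yuma, first leaf) sprayed to run-off with compound in acetone/water with Triton X-100, inoculated with Puccinia triticina before or after treatment. Held overnight in dark dew at 22° C, then greenhouse at 24° C; percent disease control from severity versus untreated plants.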

[1] = tested on: Mycosphaerella graminicola; Anamorph: Septoria tritici; assay: Fungicidal activity: Leaf Blotch of Wheat (SEPTTR); format: in vivo; settings: Zymoseptoria tritici, wheat leaf blotch; for pest or weed control at 121.5 g/ha: Low Volume (121.5 g/H); for pest or weed control at 100 µg/mL: High Volume (100 ppm)
In short: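 Compounds were dissolved in acetone, diluted with nine volumes of water containing 110 ppm Triton X-100, and sprayed to run-off on first-leaf Yuma wheat seedlings inoculated with Septoria tritici spores before or after treatment. Plants were held in a dew chamber, then a 20° C. greenhouse. Percent control was derived from disease severity relative to untreated plants.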

[2] = 24 h, 1 Day Protectant, read-out: PUCCRT 1 DP disease control
[3] = 72 h, 3 Day Curative, read-out: PUCCRT 3 DC disease control
[4] = 24 h, 1 Day Protectant, read-out: SEPTTR 1 DP disease control
[5] = 72 h, 3 Day Curative, read-out: SEPTTR 3 DC disease control

| Structure (SMILES) | melting point | pest or weed control at 121.5 g/ha (Puccinia triticina; [2]) | pest or weed control at 121.5 g/ha (Puccinia triticina; [3]) | pest or weed control at 121.5 g/ha [1, 4] | pest or weed control at 121.5 g/ha [1, 5] | pest or weed control at 100 µg/mL (Puccinia triticina; [2]) | pest or weed control at 100 µg/mL (Puccinia triticina; [3]) | pest or weed control at 100 µg/mL [1, 4] | pest or weed control at 100 µg/mL [1, 5] |
| --- | --- | --- | --- | --- | --- | --- | --- | --- | --- |
| COCCC(=O)Oc1c(OC)ccnc1C(=O)N[C@H]1COC[C@H](Cc2ccc(Cl)cc2)[C@@H](C2CCCC2)[C@H](C)OC1=O [compound 106, 2-(((3S,7R,8R,9S)-7-(4-chlorobenzyl)-8-cyclopentyl-9-methyl-2-oxo-1,5-dioxonan-3-yl)carbamoyl)-4-methoxypyridin-3-yl 3-methoxypropanoate] | 55 to 60 °C | > 70% | > 70% | > 70% | > 70% |  |  |  |  |
| CCC[C@H]1COC[C@H](NC(=O)c2nccc(OC)c2OC(C)=O)C(=O)O[C@@H](C)[C@@H]1Cc1ccc(F)cc1 [compound 107] | 57 to 62 °C | > 70% | > 70% | > 70% | > 70% |  |  |  |  |
| CCC[C@H]1COC[C@H](NC(=O)c2nccc(OC)c2OCOC(C)=O)C(=O)O[C@@H](C)[C@@H]1Cc1ccc(F)cc1 [compound 108] | 38 to 43 °C | > 70% | > 70% | > 70% | > 70% |  |  |  |  |
| COc1ccnc(C(=O)N[C@H]2COC[C@H](CC3CCCCC3)[C@@H](CC3CCCCC3)[C@H](C)OC2=O)c1O [compound 119] | 69 to 75 °C |  |  |  |  | > 70% | > 70% | > 70% | < 70% |
| COc1cccc(C[C@H]2COC[C@H](NC(=O)c3nccc(OC)c3O)C(=O)O[C@@H](C)[C@@H]2Cc2cccc(OC)c2)c1 [compound 124] | 62 to 65 °C |  |  |  |  | > 70% | < 70% | < 70% | < 70% |
| COc1ccnc(C(=O)N[C@H]2COC[C@H](Cc3ccccc3)[C@@H](Cc3ccc(OC(F)(F)F)cc3)[C@H](C)OC2=O)c1O [compound 131] | 63 to 69 °C |  |  |  |  | > 70% | > 70% | > 70% | > 70% |
| COc1ccnc(C(=O)N[C@H]2COC[C@H](Cc3ccc(Cl)cc3)[C@@H](Cc3ccc(OC(F)(F)F)cc3)[C@H](C)OC2=O)c1O [compound 137] | 64 to 68 °C |  |  |  |  | > 70% | < 70% | < 70% | > 70% |
| COc1ccnc(C(=O)N[C@H]2COC[C@H](CC3CC3)[C@@H](Cc3ccccc3)[C@H](C)OC2=O)c1O [compound 140] | 56 to 61 °C |  |  |  |  | > 70% | < 70% | > 70% | < 70% |
| COc1ccnc(C(=O)N[C@H]2COC[C@H](Cc3ccc(C(F)(F)F)cc3)[C@@H](CC(C)C)[C@H](C)OC2=O)c1O [compound 141] | 66 to 71 °C |  |  |  |  | > 70% | > 70% | > 70% | > 70% |
| COc1ccnc(C(=O)N[C@H]2COC[C@H](Cc3ccc(Cl)cc3)[C@@H](C3CCCC3)[C@H](C)OC2=O)c1O [compound 149] | 80 to 84 °C |  |  |  |  | > 70% | > 70% | > 70% | > 70% |
| COc1ccnc(C(=O)N[C@H]2COC[C@H](CCC(C)C)[C@@H](C3CCCC3)[C@H](C)OC2=O)c1O [compound 150] | 38 to 43 °C |  |  |  |  | > 70% | > 70% | > 70% | > 70% |
| CCC[C@H]1COC[C@H](NC(=O)c2nccc(OC)c2O)C(=O)O[C@@H](C)[C@@H]1Cc1ccc(F)cc1 [compound 155] | 43 to 48 °C |  |  |  |  | > 70% | < 70% | > 70% | > 70% |

More lines, main results first:

| melting point | Structure (SMILES) | pest or weed control at 121.5 g/ha (Puccinia triticina; [2]) | pest or weed control at 121.5 g/ha (Puccinia triticina; [3]) | pest or weed control at 121.5 g/ha [1, 4] | pest or weed control at 121.5 g/ha [1, 5] | pest or weed control at 100 µg/mL (Puccinia triticina; [2]) | pest or weed control at 100 µg/mL (Puccinia triticina; [3]) | pest or weed control at 100 µg/mL [1, 4] | pest or weed control at 100 µg/mL [1, 5] |
| --- | --- | --- | --- | --- | --- | --- | --- | --- | --- |
| 201 to 204 °C | COc1ccnc(C(=O)N[C@H]2COC[C@H](Cc3ccccc3)[C@@H](Cc3ccccc3)[C@@H](C)OC2=O)c1O [compound 111] |  |  |  |  | > 70% | > 70% | > 70% | < 70% |
| 52 to 56 °C | COc1ccnc(C(=O)N[C@H]2COC[C@H](CCc3ccccc3)[C@@H](CCc3ccccc3)[C@H](C)OC2=O)c1O [compound 113] |  |  |  |  | > 70% | < 70% | > 70% | > 70% |
| 64 to 72 °C | COc1ccnc(C(=O)N[C@H]2COC[C@H](c3ccccc3)[C@@H](c3ccccc3)[C@H](C)OC2=O)c1O [compound 116] |  |  |  |  | > 70% | > 70% | > 70% | < 70% |
| 185 to 190 °C | COc1ccnc(C(=O)N[C@H]2COC[C@H](Cc3ccccc3)[C@@H](c3ccccc3)[C@H](C)OC2=O)c1O [compound 132] |  |  |  |  | > 70% | > 70% | > 70% | > 70% |
| 48 to 52 °C | COc1ccnc(C(=O)N[C@H]2COC[C@H](CCCc3ccccc3)[C@@H](CCc3ccccc3)[C@H](C)OC2=O)c1O [compound 139] |  |  |  |  | > 70% | < 70% | < 70% | < 70% |
| 68 to 73 °C | COc1ccnc(C(=O)N[C@H]2COC[C@H](Cc3ccccc3)[C@@H](COc3ccccc3)[C@H](C)OC2=O)c1O [compound 151] |  |  |  |  | > 70% | < 70% | > 70% | > 70% |
